Converted amounts (≈) assume the structure as drawn. Where a name gives a salt, the structure may show the parent alone.
Key:
[1] = tested on: S. aureus Col (Meth^R) (lac^-); assay: MIC by agar dilution, S. aureus Col (Meth^R) (lac^-); format: cell-based; details: Staphylococcus aureus; agar dilution; S. aureus Col (Meth^R) (lac^-); read-out: MIC
Method: The compounds of the invention were evaluated against several β-lactamresistant bacteria strains by determining the minimum inhibitory concentration (MIC, μg/ml) of each compound with respect to each strain. The MIC, the lowest concentration of antibiotic which inhibits growth of the test organism, was determined by the agar dilution method.
To determine the MIC for bacterial isolates, the test compound was incorporated in a series of two-fold dilutions into liquified Mueller-Hinton agar. Upon solidification, a number of different bacterial strains were spot inoculated with a replicating device onto the agar surface. […] The procedures used in these studies have been standardized by the National Committee for Clinical Laboratory Standards (NCCLS), as per the NCCLS publication entitled METHODS FOR DILUTION ANTIMICROBIAL SUSCEPTIBILITY TESTS (1991), which is incorporated herein by reference.
Aliquots of antimicrobial agents were prepared in phosphate buffered saline (PBS) at pH 7.2. Tween 20 or DMSO was used as a solubilizing vehicle as needed. Standard methods of vortexing, sonicating and gentle heat were used to facilitate solubilizing the test agent. Typically, the concentration of the stock solution was 10× that of the highest drug concentration tested. A 1.28 mg/mL stock solution was used with a subsequent highest working concentration of 128 μg/mL. Serial two-fold dilutions were done through ≤0.25 μg/mL. Each drug level was tested in duplicate. Two-fold drug dilutions were done in sterile 50 mL tubes with a final drug volume of 5 mL. Upon the addition of 45 mL of molten agar, a 10-fold dilution resulted. Two, 25 mL. plates were then poured into 15×150 mm square Petri plates with grids and allowed to harden.
A control plate with a reference drug, either cefotaxime, vancomycin or imipenem, was used as the positive growth control. Stock concentrations of reference antibiotics were prepared and frozen at -80° C. Upon preparation, the control plates were sealed and stored in the refrigerator for up to 1 week prior to use; however, imipenem control plates had to be prepared just prior to use. All test plates were used within 24 hours of preparation.
Satisfactory results were obtained where the inoculum contained about 10^4 colony forming units (cfu) ±0.5 logs. Starting with pure cultures of the test isolates on agar plates, a few isolated colonies were transferred to a tube of nutrient broth and allowed to grow 4-6 hours at 35°-36° C. to reach log-phase growth. Dropwise addition of the broth culture to PBS was done to match a 0.5 McFarland turbidity standard equal to 10^8 cfu/mL. This was further diluted ten-fold in PBS to reach a working inoculum concentration of 10^7 cfu/mL. When 1 μL of the working inoculum was applied to the agar surface a concentration of about 10^4 cfu per spot was obtained.
Disposable sterile 1 μL loops were used to inoculate test plates, with each isolate in a designated grid on the agar plate. An alternate method of inoculation involved the use of a replica plater, a device with 48 steel pins allowing the simultaneous inoculation of multiple isolates. After the spots had dried, the plates were incubated at 35°-36° C. for 16-20 hours. Endpoints were assessed as the minimum inhibitory concentration (MIC) of antimicrobial agent.
The novel agents of this invention are notable for their enhanced activity against S. aureus Col and Enterococci (E. faecium and E. faecalis). The S. aureus Col strain is a high-level PBP2a producer, whereas S. aureus Col 8A, its isogenic partner, lacks PBP2a. […] Thus, the compounds of the present invention are effective against PBP2a-producing bacteria.

[2] = tested on: methicillin-susceptible S. aureus strain ATCC 13709; assay: murine model for lethal bacteremic peritonitis; format: in vivo, female Swiss-Webster mice; details: subcutaneous, 72 h
Method: Groups of 5 female Swiss-Webster mice (Simonsen, Gilroy, Calif.) each are challenged by the intraperitoneal (IP) route with tenfold increments of a bacterial inoculum. This permits calculation of the mean lethal dose (LD50) and the LD100. For preliminary evaluation of a new antibiotic, mice are challenged IP with an LD100 titer of bacteria. In two equal doses administered at the time of bacterial challenge and 2 hours later, groups of 10 mice each are treated subcutaneously with two-fold increments of the test drug and an antibiotic of known efficacy in mice and humans (i.e., positive control). Mice are observed for 72 h. Those alive at 72 h are considered long term survivors. The total drug dose in mg/kg that protects 50% of mice in a group from death is termed the mean protective dose (PD50). PD50 s are similarly determined for several pathogens. The quantitative endpoints for the new drug are then compared with those obtained with reference antibiotics.
Six ten-fold dilutions of inoculum suspended in 0.5 mL of sterilized 7% hog gastric mucin (Sigma) are injected IP in groups of 5 mice each. A control group of 5 mice receive mucin alone. Mice are observed for 72 h. Those alive at 72 h are considered long term survivors. The mean lethal dose (LD50) and 100% lethal dose (LD100) are determined by the probit test.
For antibiotic efficacy studies, mice are challenged IP with bacterial titers that will afford an LD100 for the test strain. In two equal doses administered at the time of bacterial challenge and 2 hours later, groups of 10 mice each are treated by the subcutaneous route (SC) with twofold increments of the test antibiotic; another group is treated similarly with a reference antibiotic of known efficacy in animals and man. Drug doses can range from 0.01 to 512 mg/kg. If the drug is poorly soluble, Tween 20 or propylene glycol will be employed to solubilize the drug. Animals are observed for 72 h. The 50% protective dose (PD50) is calculated in mg/kg by the probit method. The PD50 is the same as the 50% effective dose (ED50) and the 50% curative dose (CD50). Samples of blood from the hearts of all animals that die and from half the mice that survive are cultured on brain-heart infusion agar. Animals that received a protective dosage of the test drug will be alive at 72 h, although they may appear moderately ill to very ill during the observation period. […] Most of these mice will die within 6 to 48 h. Those alive at 72 h will be considered long term survivors.
(Compound numbers correspond to those in MIC tables; data
reported for challenge with methicillin-susceptible S. aureus

SMILES	MIC [1] [µg/mL]	other results
NCc1ccccc1CC(=O)N[C@@H]1C(=O)N2C(C(=O)O)=C(Sc3ccnn3-c3ccccc3)CS[C@H]12 [Cmpd 96, (7R)-7-[((2-aminomethylphenyl)acetyl)amino]-3-(1-N-phenylpyrazol-5-ylthio)-3-cephem-4-carboxylic acid]	8 (≈ 15.3 µM)	–
CSCC(=O)N[C@@H]1C(=O)N2C(C(=O)O)=C(Sc3ccccc3CSC(=N)NN)CS[C@H]12 [Cmpd 133, (7R)-7-[(methylthioacetyl)amino]-3-(2-(N-amino)isothiouroniummethylphenylthio)-3-cephem-4-carboxylate, inner salt]	2 to 4	–
O=C(O)C1=C(Sc2ccnn2-c2ccccc2)CS[C@@H]2[C@H](NC(=O)C(=NO)c3ccco3)C(=O)N12 [Cmpd 121, (7R)-7-[2-(2-furyl)-2-(hydroxyimino)acetamido]-3-(1-N-phenylpyrazol-5-ylthio)-3-cephem-4-carboxylic acid]	4 (≈ 7.82 µM)	–
N=C(N)SCCc1ccccc1SC1=C(C(=O)O)N2C(=O)[C@@H](NC(=O)Cc3ccccc3)[C@H]2SC1 [Cmpd 100, (7R)-7-[(Phenylacetyl)amino]-3-(2-(2-isothiouronium)ethylphenylthio)-3-cephem-4-carboxylate, inner salt]	4	–
Nc1nc(/C(=N/OC2CCCC2)C(=O)N[C@@H]2C(=O)N3C(C(=O)O)=C(Sc4cccnc4-c4ccccc4)CS[C@H]23)cs1 [Cmpd 86, (7R)-7-[(Z)-2-(aminothiazol-4-yl)-2-(cyclopentyloxyimino)acetamido]-3-(2-phenylpyridin-3-ylthio)-3-cephem-4-carboxylic acid]	8 (≈ 12.8 µM)	–
Cn1nnnc1SCc1ccccc1SC1=C(C(=O)O)N2C(=O)[C@@H](NC(=O)Cc3ccccc3)[C@H]2SC1 [Cmpd 71]	16 (≈ 28.8 µM)	–
N#Cc1ccc(SC2=C(C(=O)O)N3C(=O)[C@@H](NC(=O)Cc4ccccc4)[C@H]3SC2)c([N+](=O)[O-])c1 [Cmpd 49, (7R)-7-[(Phenylacetyl)amino]-3-(4-cyano-2-nitrophenylthio)-3-cephem-4-carboxylic acid]	4 (≈ 8.06 µM)	–
O=C(Cc1ccccc1)N[C@@H]1C(=O)N2C(C(=O)O)=C(Sc3ccnn3-c3ccc(F)cc3)CS[C@H]12 [Cmpd 123, (7R)-7-[(Phenylacetyl)amino]-3-(1-N-(4-fluorophenyl)pyrazol-5-ylthio)-3-cephem-4-carboxylic acid]	4 (≈ 7.83 µM)	–
O=C(Cc1ccccc1)N[C@@H]1C(=O)N2C(C(=O)O)=C(Sc3ccccc3-c3cnco3)CS[C@H]12 [Cmpd 95, (7R)-7-[(Phenylacetyl)amino]-3-(2-oxazol-5-ylphenylthio)-3-cephem-4-carboxylic acid]	4 (≈ 8.1 µM)	–
N#CCC(=O)N[C@@H]1C(=O)N2C(C(=O)O)=C(Sc3ccccc3-c3ccccc3)CS[C@H]12 [Cmpd 34, (7R)-7-[(Cyanoacetyl)amino]-3-(2-biphenylthio)-3-cephem-4-carboxylic acid]	2 (≈ 4.43 µM)	–
COc1ccc(CC(=O)N[C@@H]2C(=O)N3C(C(=O)O)=C(Sc4ccccc4I)CS[C@H]23)cc1 [Cmpd 29, (7R)-7-[(p-Methoxyphenylacetyl)amino]-3-(o-iodophenylthio)-3-cephem-4-carboxylic acid]	1 (≈ 1.72 µM)	–
O=C(Cc1cccs1)N[C@@H]1C(=O)N2C(C(=O)O)=C(Sc3ccccc3I)CS[C@H]12 [Cmpd 25, (7R)-7-[(2-Thienylacetyl)amino]-3-(o-iodophenylthio)-3-cephem-4-carboxylicacid]	1 (≈ 1.79 µM)	–
Nc1nc(/C(=N/O)C(=O)N[C@@H]2C(=O)N3C(C(=O)O)=C(Sc4ccccc4-c4ccccc4)CS[C@H]23)cs1 [Cmpd 42, (7R)-7-[(Z)-2-(aminothiazol-4-yl)-2-(hydroxyimino)acetamido]-3-(2-biphenylthio)-3-cephem-4-carboxylic acid]	4 (≈ 7.22 µM)	–
Cc1nnc(SCc2ccccc2SC2=C(C(=O)O)N3C(=O)[C@@H](NC(=O)Cc4ccccc4)[C@H]3SC2)s1 [Cmpd 77]	8 (≈ 14 µM)	–
CC(C)(C)c1ccccc1SC1=C(C(=O)O)N2C(=O)[C@@H](NC(=O)Cc3ccccc3)[C@H]2SC1 [Cmpd 46, (7R)-7-[(Phenylacetyl)amino]-3-(2-tert-butylphenylthio)-3-cephem-4-carboxylic acid]	1 (≈ 2.07 µM)	–
Nc1nnc(SCC(=O)N[C@@H]2C(=O)N3C(C(=O)O)=C(Sc4ccnn4-c4ccccc4)CS[C@H]23)s1 [Cmpd 120]	8 (≈ 14.6 µM)	–
C[n+]1cccc(SC2=C(C(=O)[O-])N3C(=O)[C@@H](NC(=O)Cc4ccccc4)[C@H]3SC2)c1-c1ccccc1 [Cmpd 82, (7R)-7-[(Phenylacetyl)amino]-3-(2-phenyl-N-methylpyridin-3-iumthio)-3-cephem-4-carboxylate]	4 (≈ 7.73 µM)	–
CCN=C(NCC)SCc1ccccc1SC1=C(C(=O)O)N2C(=O)[C@@H](NC(=O)Cc3ccccc3)[C@H]2SC1 [Cmpd 74, (7R)-7-[(Phenylacetyl)amino]-3-(2-N,N'-diethylisothiouroniummethylphenylthio)-3-cephem-4-carboxylate, inner salt]	16	–
CN(C)C(SCc1ccc(SC2=C(C(=O)[O-])N3C(=O)[C@@H](NC(=O)Cc4ccccc4)[C@H]3SC2)c(I)c1)=[N+](C)C [Cmpd 62, (7R)-7-[(Phenylacetyl)amino]-3-(4-tetramethylisothiouroniummethyl-2-iodophenylthio)-3-cephem-4-carboxylate, inner salt]	4	–
CN[C@H](CC(C)C)C(=O)N[C@H]1C(=O)N[C@@H](CC(N)=O)C(=O)N[C@H]2C(=O)N[C@H]3C(=O)N[C@H](C(=O)N[C@H](C(=O)O)c4cc(O)cc(O)c4-c4cc3ccc4O)[C@H](O)c3ccc(c(Cl)c3)Oc3cc2cc(c3O[C@@H]2O[C@H](CO)[C@@H](O)[C@H](O)[C@H]2O[C@H]2C[C@](C)(N)[C@H](O)[C@H](C)O2)Oc2ccc(cc2Cl)[C@H]1O [Vancomycin, reference compound]	–	Mortality ([2]; dose 0.625 mg/kg): 8/10; Mortality ([2]; dose 1.25 mg/kg): 6/10; Mortality ([2]; dose 2 mg/kg): 8/10; Mortality ([2]; dose 2.5 mg/kg): 5/10; Mortality ([2]; dose 4 mg/kg): 2/10; Mortality ([2]; dose 5 mg/kg): 5/10; Mortality ([2]; dose 8 mg/kg): 0/10; Mortality ([2]; dose 10 mg/kg): 2/10; Mortality ([2]; dose 16 mg/kg): 0/10; ED50 ([2]; two equal doses, S. aureus ATCC 13709 IP challenge, 4320 min): 2.79 mg/kg
